From BigSolDB 2.1

Nc1ccnc(=O)[nH]1
solubility (mole fraction)
Conditions | 288.15 K | 293.15 K | 298.15 K | 303.15 K | 308.15 K | 313.15 K | 318.15 K | 323.15 K | 328.15 K
in DMSO | – | 0.00997 | 0.0105 | 0.0111 | 0.012 | 0.0129 | 0.0136 | 0.0145 | 0.0155
in ethanol | 0.000339 | 0.000348 | 0.000372 | 0.000423 | 0.000451 | 0.000497 | 0.000523 | 0.000609 | 0.000692
in isobutanol | 0.000144 | 0.000162 | 0.000175 | 0.0002 | 0.000224 | 0.000268 | 0.000309 | 0.00035 | 0.000394
in isopentanol | 0.000201 | 0.000221 | 0.000253 | 0.000278 | 0.000308 | 0.000344 | 0.000374 | 0.000415 | 0.000483
in isopropanol | 0.000159 | 0.000175 | 0.000187 | 0.000205 | 0.00024 | 0.000283 | 0.000316 | 0.000358 | 0.000412
in methanol | 0.000721 | 0.000808 | 0.000897 | 0.000999 | 0.00112 | 0.00125 | 0.00143 | 0.00159 | 0.00177
in n-butanol | 0.000171 | 0.000193 | 0.000221 | 0.000241 | 0.000274 | 0.000301 | 0.000344 | 0.000389 | 0.000439
in n-hexanol | 0.000139 | 0.000153 | 0.000168 | 0.000187 | 0.000213 | 0.000251 | 0.00029 | 0.000337 | 0.000378
in n-octanol | 0.000102 | 0.000108 | 0.00012 | 0.000133 | 0.000153 | 0.000188 | 0.00023 | 0.000266 | 0.000304
in n-pentanol | 0.000165 | 0.000185 | 0.000197 | 0.000228 | 0.000254 | 0.000293 | 0.00033 | 0.000369 | 0.000425
in n-propanol | 0.000218 | 0.000235 | 0.000273 | 0.000303 | 0.000329 | 0.000373 | 0.000433 | 0.000526 | 0.000588
in sec-butanol | 0.000128 | 0.000137 | 0.000149 | 0.000165 | 0.000191 | 0.000234 | 0.000279 | 0.000321 | 0.000367
in tert-butanol | – | – | – | 0.000269 | 0.00036 | 0.000461 | 0.000706 | 0.000848 | 0.00118
in water | 0.000768 | 0.000899 | 0.00112 | 0.00145 | 0.00176 | 0.00215 | 0.00261 | 0.00337 | 0.00397
